Results from PMC10815578 (International Journal of Molecular Sciences, 2024).
“And” between values parts separate entries of the source, which are not always exact repeats. Equal values may be shown once. Read-outs that look alike come from different tables or passages of the source. Values belong to the compound of their own block, whether it stands above or below them.

How the values were obtained:
[1] = target: T1, OATP4C1 (Homo sapiens, UniProt Q6ZQN7); assay: Inhibition of OATP4C1-mediated T3 uptake in OATP4C1/MDCKII cells; conditions: for inhibition at 10 min, 100 µM / inhibition at 10 min, 50 µM: human; for inhibitory effect on OATP4C1-mediated transport in the presence of AA compared with its absence: 10 µM AA; for inhibition at 10 min, 50 µM: curcumin inhibition of OATP4C1-mediated transport, 50 µM curcumin; for alteration of OATP4C1-mediated transport (in words): 100 µM (theaflavin 50 µM)
T1 sequence (Q6ZQN7 1-724): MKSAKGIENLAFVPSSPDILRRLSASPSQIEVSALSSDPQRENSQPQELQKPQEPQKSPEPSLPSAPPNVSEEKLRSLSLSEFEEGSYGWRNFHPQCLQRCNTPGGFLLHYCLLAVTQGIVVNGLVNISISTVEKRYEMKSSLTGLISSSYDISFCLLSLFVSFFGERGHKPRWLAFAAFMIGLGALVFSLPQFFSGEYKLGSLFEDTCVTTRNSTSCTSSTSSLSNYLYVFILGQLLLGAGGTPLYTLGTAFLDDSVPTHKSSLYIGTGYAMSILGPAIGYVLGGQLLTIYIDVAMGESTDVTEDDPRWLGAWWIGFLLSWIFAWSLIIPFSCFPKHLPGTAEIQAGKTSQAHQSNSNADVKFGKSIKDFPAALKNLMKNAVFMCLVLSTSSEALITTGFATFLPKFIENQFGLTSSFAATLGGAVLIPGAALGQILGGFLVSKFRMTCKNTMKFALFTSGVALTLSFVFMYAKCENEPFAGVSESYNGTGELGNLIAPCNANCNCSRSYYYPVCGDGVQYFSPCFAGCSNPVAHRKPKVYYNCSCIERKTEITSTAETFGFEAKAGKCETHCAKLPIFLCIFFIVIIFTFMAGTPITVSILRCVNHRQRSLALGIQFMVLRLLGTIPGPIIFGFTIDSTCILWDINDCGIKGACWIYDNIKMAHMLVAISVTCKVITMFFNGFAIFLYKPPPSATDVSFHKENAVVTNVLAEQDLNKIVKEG

[2] = tested on: OATP1B3; conditions: cited from earlier work; for IC50: read-out: OATP1B3 IC50
[3] = tested on: OATP1B1; conditions: cited from earlier work
[4] = tested on: OAT3; conditions: Supplementary table, cited from earlier work
[5] = tested on: OATP2B1; conditions: Supplementary table, ref previous reports (superscript numbers), cited from earlier work; for IC50: read-out: OATP2B1 IC50; for Ki: read-out: OATP2B1 Ki (asterisk)
[6] = tested on: OAT1; conditions: Supplementary table, cited from earlier work
[7] = pH 7.4, probe T3 (1 µM), OATP4C1 inhibition degree, 100 µM, Supplementary table
[8] = Supplementary table, ref previous reports (superscript numbers)
[9] = read-out: OATP1B1 IC50, Supplementary table, ref previous reports (superscript numbers)
[10] = ref previous reports (superscript numbers)
[11] = pH 7.4, probe T3 (1 µM), inhibition of OATP4C1-mediated transport, 100 µM compound, 1 µM T3, 10 min, 37 °C, without AA

OATP4C1 inhibition or elevation (class) ([1]; Supplementary table): Yes
inhibition at 10 min, 100 µM [1, 7]: 24%
SMILES: Oc1cc(O)c2cc(O)c(-c3ccc(O)c(O)c3)[o+]c2c1 [Cyanidin, Cyanidin chloride]

inhibitory effect on OATP4C1-mediated transport in the presence of AA compared with its absence ([1]; 100 µM compound): weakened
OATP4C1 inhibition or elevation (class) ([1]; Supplementary table): Yes
inhibition at 10 min, 100 µM ([1]; pH 7.4): 42%
SMILES: O=c1c(-c2ccc(O)cc2)coc2cc(O)cc(O)c12 [genistein]
IC50 [3, 9]: 14.9 ± 3.76 µM

inhibitory effect on OATP4C1-mediated transport in the presence of AA compared with its absence ([1]; 100 µM compound): weakened
OATP4C1 inhibition or elevation (class) ([1]; Supplementary table): Yes
inhibition at 10 min, 100 µM [1, 7]: 52%
inhibition at 10 min, 100 µM [1, 11]: ≥ 50%
SMILES: O=c1cc(-c2ccc(O)c(O)c2)oc2cc(O)cc(O)c12 [luteolin]
IC50 [4, 10]: 4.2 µM
IC50 [5]: 0.42 µM

inhibition at 10 min, 50 µM ([1]; pH 7.4, probe T3 (1 µM), absence of AA, 1 µM T3, 10 min): 33%
inhibition at 10 min, 50 µM ([1]; pH 7.4, probe T3 (1 µM), presence of 10, 100 and 1000 µM AA, 1 µM T3, 10 min): 63 to 67%
SMILES: COc1cc(/C=C/C(=O)CC(=O)/C=C/c2ccc(O)c(OC)c2)ccc1O [curcumin]
IC50 ([3]; read-out: IC50 OATP1B1 transport, no antioxidant used): 3.8 µM
IC50 [3, 9]: 3.81 µM

The next lines start with the compound.

SMILES: COc1ccc([C@@H]2CC(=O)c3c(O)cc(O[C@@H]4O[C@H](CO[C@@H]5O[C@@H](C)[C@H](O)[C@@H](O)[C@H]5O)[C@@H](O)[C@H](O)[C@H]4O)cc3O2)cc1O [Hesperidin, hesperidin]
OATP4C1 inhibition or elevation (class) ([1]; Supplementary table): No

SMILES: O=C(O)c1cc(O)c(O)c(O)c1 [gallic acid, Gallic acid]
IC50 [2, 8]: 1.6 ± 0.6 µM

SMILES: O=c1c(O)cc([C@H]2Oc3cc(O)cc(O)c3C[C@H]2O)cc2c([C@H]3Oc4cc(O)cc(O)c4C[C@H]3O)cc(O)c(O)c12 [Theaflavin, theaflavin]
Ki [5]: 8.2 ± 1.7 µM
alteration of OATP4C1-mediated transport (in words) ([1]; 1 µM T3, 10 min, without AA): did not inhibit
OATP4C1 inhibition or elevation (class) ([1]; Supplementary table): No

SMILES: O=C(O[C@@H]1Cc2c(O)cc(O)cc2O[C@@H]1c1cc(O)c(O)c(O)c1)c1cc(O)c(O)c(O)c1 [EGCG, epigallocatechin-3-gallate]
Ki ([6]; ref 27 of the supplement, read-out: OAT1 Ki (asterisk)): 334 ± 58 µM
Ki ([4]; ref 27 of the supplement, read-out: OAT3 Ki (asterisk)): 162 ± 29 µM
IC50 [3, 9]: 14.1 µM and 7.8 µM
OATP1B3 inhibition or elevation (class) ([2]; Supplementary table, ref 25 of the supplement): Elevation
IC50 [2, 8]: 8.4 ± 0.6 µM
EC50 ([2]; read-out: OATP1B3 elevation EC50, mean ± S.E., ref 25 of the supplement): 10.5 ± 1.6 µM
IC50 [5]: 101 ± 9 µM
alteration of OATP4C1-mediated transport (in words) ([1]; 1 µM T3, 10 min, without AA): did not inhibit
OATP4C1 inhibition or elevation (class) ([1]; Supplementary table): No

SMILES: O=c1oc2c(O)c(O)cc3c(=O)oc4c(O)c(O)cc1c4c23 [ellagic acid]
IC50 [6, 10]: 0.207 µM
alteration of OATP4C1-mediated transport (in words) ([1]; 1 µM T3, 10 min, without AA): did not inhibit
elevation of OATP4C1-mediated transport ([1]; 100 µM compound, 1 µM T3, 10 min, 37 °C, without AA): 13%
OATP4C1 elevation degree ([1]; 100 µM, Supplementary table): 13%
OATP4C1 inhibition or elevation (class) ([1]; Supplementary table): Elevation

SMILES: C[C@@H]1O[C@@H](O[C@H]2[C@H](Oc3cc(O)c4c(c3)O[C@H](c3ccc(O)cc3)CC4=O)O[C@H](CO)[C@@H](O)[C@@H]2O)[C@H](O)[C@H](O)[C@H]1O [Naringin, naringin]
OATP1B1 inhibition degree ([3]; 250 µM, ref 1 of the supplement): < 50%
OATP1B1 inhibition or elevation (class) [3, 8]: Yes
IC50 [2, 8]: 197.5 ± 1.1 µM
OATP4C1 inhibition or elevation (class) ([1]; Supplementary table): No

SMILES: O=c1c(O)c(-c2ccc(O)c(O)c2)oc2cc(O)cc(O)c12 [quercetin]
Ki ([3]; read-out: OATP1B1 Ki (asterisk), Supplementary table, ref previous reports (superscript numbers)): 8.8 ± 0.8 µM
IC50 [2, 8]: 3.22 µM
Ki ([2]; read-out: OATP1B3 Ki (asterisk), Supplementary table, ref previous reports (superscript numbers)): 7.8 ± 1.7 µM
Ki [5]: 8.7 ± 0.1 µM
inhibitory effect on OATP4C1-mediated transport in the presence of AA compared with its absence ([1]; 100 µM compound): weakened
OATP4C1 inhibition or elevation (class) ([1]; Supplementary table): Yes
inhibition at 10 min, 100 µM [1, 7]: 50%
inhibition at 10 min, 100 µM [1, 11]: ≥ 50%
